Source: patent US20050026812A1, “Conjugated nitro alkene anticancer agents based on isoprenoid metabolism” (Arizona Disease Control Research Commission, priority 2003, published 2005)
Where two headings read alike, the source gives them in different places.

Tests used:
Prostate (PC-3) = experiment: Cancer cell growth inhibition in culture, Prostate (PC-3); type: cell-based; conditions: Homo sapiens, 50% growth inhibition
Text: (§1) Cancer cell growth inhibition.

NSC Lung (H-460) = experiment: Cancer cell growth inhibition in culture, NSC Lung (H-460); type: cell-based; conditions: Homo sapiens, NCI-H460, 50% growth inhibition
Text: as §1

Colon (Caco-2) = experiment: Cancer cell growth inhibition in culture, Colon (Caco-2); type: cell-based, human; conditions: 50% growth inhibition
Text: as §1

[1] = test system: Acute myeloid leukemia (HL-60); experiment: Cancer cell growth inhibition in culture, Acute myeloid leukemia (HL-60); type: cell-based, human; conditions: 50% growth inhibition
Text: as §1

Urinary bladder (T-24) = experiment: Cancer cell growth inhibition in culture, Urinary bladder (T-24); type: cell-based, human; conditions: 50% growth inhibition
Text: as §1

Fibrosarcoma (HT-1080) = experiment: Cancer cell growth inhibition in culture, Fibrosarcoma (HT-1080); type: cell-based, human; conditions: 50% growth inhibition
Text: as §1

Colon (HT-29) = experiment: Cancer cell growth inhibition in culture, Colon (HT-29); type: cell-based, human; conditions: 50% growth inhibition
Text: as §1

Colorectal (Colo-205) = experiment: Cancer cell growth inhibition in culture, Colorectal (Colo-205); type: cell-based, human; conditions: 50% growth inhibition
Text: as §1

Lung (NCI-H460) = experiment: Cancer cell growth inhibition in culture, Lung (NCI-H460); type: cell-based; conditions: Homo sapiens
Text: (§2) Compound RG-14 was also effective at inhibiting the growth of human cancer cells in culture. The GI50 values of this compound against specified human cancer cells and mouse leukemia cells grown in culture are shown in Table 2.
as §1

Mouse P388 leukemia = experiment: Cancer cell growth inhibition in culture, Mouse P388 leukemia; type: cell-based; conditions: read-out: ED50 (the source's name)
Text: as §2, §1

[2] = test system: Central nervous system (SF268); experiment: Cancer cell growth inhibition in culture, Central nervous system (SF268); type: cell-based; conditions: Homo sapiens, SF-268
Text: as §2, §1

Prostate (DU-145) = experiment: Cancer cell growth inhibition in culture, Prostate (DU-145); type: cell-based; conditions: Homo sapiens
Text: as §2, §1

[3] = test system: human cancer cells and mouse leukemia cells; experiment: Cancer cell growth inhibition in culture, panel of Table 2; type: cell-based; conditions: cell lines of Table 2
Text: as §2, §1

Breast (MCF-7) = experiment: Cancer cell growth inhibition in culture, Breast (MCF-7); type: cell-based; conditions: Homo sapiens, MCF7
Text: as §2, §1

Pancreatic (BXPC-3) = experiment: Cancer cell growth inhibition in culture, Pancreatic (BXPC-3); type: cell-based; conditions: Homo sapiens
Text: as §2, §1

Colon (KM20L2) = experiment: Cancer cell growth inhibition in culture, Colon (KM20L2); type: cell-based; conditions: Homo sapiens, KM-20L2
Text: as §2, §1

[4] = biological target: T1, human recombinant protein farnesyltransferase (FTase) (Homo sapiens, UniProt P49354+P49356); experiment: FTase fluorescence assay after pre-incubation with inhibitor; type: biochemical; conditions: 30-minute treatment in vitro, 30° C.
T1 construct: gift from Professor Patrick Casey, Duke University
Protocol: Preparation of Ds-GCVLS—Ds-GCVLS was prepared by a method analogous to a published procedure. Synthesis was performed by use of a Millipore 9050 Plus PepSynthesizer that employed standard Fmoc solid phase peptide synthesis methodology. PS-PEG resin and Fmoc protected amino acids were obtained from Millipore. The N-dansylglycine was from Sigma Chemical Co. Peptide purification was performed by RP-HPLC on an Alltech Macrosphere RP300 C8 column. Elution was accomplished with a linear gradient from aqueous 10 mM trifluoroacetic acid to 10 mM trifluoroacetic acid in acetonitrile. Lyophilization yielded a pale yellow solid. […] Concentrations of Ds-GCVLS were determined by use of the extinction coefficient of the dansyl group at 340 nm (ε=4250 M-1 cm-1). […]
FTase assay—The fluoresence assay conditions were adapted from a published method. […] Enzyme activity (approximately 60 nM FTase) was monitored at saturating substrate concentrations (10 μM farnesyl diphosphate, ammonium salt, prepared by successive dilutions of a commercial 2.3 mM solution in methanol:10 mM aqueous NH4OH (7:3) into assay buffer, and 1.0 FM Ds-GCVLS) by measurement of the increase in fluorescence emission observed at λ=505 nm as FTase farnesylated Ds-GCVLS for a period of 10 min. […] All fluorescence assays were conducted in a 4 mm×4 mm quartz cuvette with excitation at 340 nm. […]

Structure (SMILES)	GI50 (Prostate (PC-3)) [µM]	GI50 (NSC Lung (H-460)) [µM]	GI50 (Colon (Caco-2); Homo sapiens, read-out: GI50) [µM]	GI50 ([1]; Homo sapiens, read-out: GI50) [µM]	GI50 (Urinary bladder (T-24))	GI50 (Fibrosarcoma (HT-1080))	GI50 (Colon (HT-29))	GI50 (Colorectal (Colo-205))	GI50 (Lung (NCI-H460)) [µM]	EC50 (Mouse P388 leukemia) [µM]	GI50 [2] [µM]	GI50 (Prostate (DU-145)) [µM]	anticancer cell growth activity [3]	GI50 (Breast (MCF-7)) [µM]	GI50 (Pancreatic (BXPC-3)) [µM]	GI50 (Colon (KM20L2)) [µM]	GI50 (Colon (Caco-2))	GI50 [1]	decrease of FTase activity ([4]; 5 μM) [%]	inhibition at 50 µM ([4]; 50 μM) [%]
CC(C)=CCCC(C)C/C=C/[N+](=O)[O-] (stereo not drawn) [RG-7, 4,8-dimethyl-1-nitronona-1,7-diene]	44	12	> 100	> 100	10^−4 to 10^−5 molar	10^−4 to 10^−5 molar	10^−4 to 10^−5 molar	10^−4 to 10^−5 molar	–	–	–	–	–	–	–	–	–	–	–	–
CC(C)=CCCC(C)CCC(C)[N+](=O)[O-] (stereo not drawn) [SRG-8, reference compound]	–	–	–	–	–	–	–	–	> 47	> 126	> 47	> 47	did not show detectable anticancer cell growth activity	> 47	> 47	> 47	–	–	–	–
CC(C)=CCCC(C)CC=C(C)[N+](=O)[O-] (racemic) [RG-14, 5,9-dimethyl-2-nitrodeca-2,8-diene]	–	–	–	–	–	–	–	–	72	26	73	72	–	39	62	77	–	–	–	–
CC(C)=CCC/C(C)=C/CCC(C)C/C=C(\C)[N+](=O)[O-] (racemic) [RG-4, 5,9,13-trimethyl-2-nitrotetradeca-2,8,12-triene]	1.5	11	–	–	10^−4 to 10^−5 molar	10^−6 to 10^−7 molar	10^−4 to 10^−5 molar	10^−4 to 10^−5 molar	–	–	–	–	–	–	–	–	10^−4 to 10^−5 molar	10^−6 to 10^−7 molar	35	83
